Measurements reported in patent US10100052B2, “Compounds for the treatment of hepatitis B virus infection” (Gilead Sciences, Inc., priority 2016, dated 2018).

Experiments:
[1] = In vitro metabolic stability, hepatocytes (rat); type: in vitro ADME; details: rat hepatocytes 1×10^6 cells/mL, 2 μM compound; read-out: Hepatocyte Stability T1/2 Rat (converted)
Experimental: (§1) For hepatocyte stability incubations, cells were obtained from BioreclamationIVT (Baltimore, Md.), thawed according to the manufacturer's directions, and resuspended to a final concentration of 1×10^6 cells/mL in Krebs-Henseleit buffer prewarmed to 37° C. The total cell count and the proportion of viable cells were determined by Trypan Blue dye exclusion using a hemocytometer. The final concentration of test compounds and positive controls was 2 μM. Incubations were carried out in duplicate wells of a 24-well plate out with gentle shaking at 37° C. under a humid atmosphere of 95% air/5% CO2 (v/v). Aliquots (50 μL) were removed after 0, 1, 3, and 6 hours and added to 100 μL quenching solution. Samples were then processed and analyzed in a manner similar to the microsomal stability samples.
(§2) Quantification of test compounds and positive controls were performed using analyte/internal standard peak area ratios (PAR) measured on a Q-Exactive mass spectrometer (Thermo Scientific, San Jose, Calif.) coupled to an Aria Transcend LX-4 multiplex UHPLC system (Thermo Scientific, San Jose, Calif.). […] Half-lives of compounds in the incubations were calculated from extracted data using GMSU/QuickCalc (Gubbs, Inc.) and data are summarized in the following Table 3.

[2] = In vitro metabolic stability, hepatocytes (human); type: in vitro ADME; details: human hepatocytes 1×10^6 cells/mL, 2 μM compound; read-out: Hepatocyte Stability T1/2 Human (converted)
Experimental: as §1, §2

Structure (SMILES)	half-life at 2 μM [1]	half-life at 2 μM [2]
COCCCOc1cc2c(cc1Cl)-c1cc(=O)c(C(=O)O)cn1N(C(C)(C)C)C2 [Example 2, 6-(tert-Butyl)-10-chloro-9-(3-methoxypropoxy)-2-oxo-6,7-dihydro-2H-pyrido[2,1-a]-phthalazine-3-carboxylic acid]	> 39.5 h	26.6 h
COCCCOc1cc2c(cc1Cl)-c1cc(=O)c(C(=O)O)cn1[C@H](C1(C)CC1)C2 [Comparative Example 1]	7 h	8.9 h
